The values below come from ChEMBL document CHEMBL1130430, “Assessment of solvation effects on calculated binding affinity differences: trypsin inhibition by flavonoids as a model system for congeneric series” (J Med Chem, 1997).

Assay [1] can be described thus: Disassociation constant (KI) was obtained from Cheng and Prusoff equation for quercetin trypsin complex.
The target of another assay is T1, Serine protease 1 (Bos taurus, UniProt P00760).
T1 sequence (P00760 whole entry): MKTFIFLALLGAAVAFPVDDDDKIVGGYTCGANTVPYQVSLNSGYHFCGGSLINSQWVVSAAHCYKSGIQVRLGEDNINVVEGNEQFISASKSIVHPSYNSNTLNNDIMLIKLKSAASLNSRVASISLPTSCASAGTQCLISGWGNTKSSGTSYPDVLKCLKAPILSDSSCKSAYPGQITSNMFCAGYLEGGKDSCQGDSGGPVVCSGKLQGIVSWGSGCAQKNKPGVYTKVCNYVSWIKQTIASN
The experiment in a line: Inhibitory concentration of the compounds against Bovine trypsin enzyme.

In assay [1], `O=c1c(O)c(-c2ccc(O)c(O)c2)oc2cc(O)cc(O)c12` [QUERCETIN] gave a Ki of 1.98 µM.
Take `O=c1c(O)c(-c2ccc(O)cc2)oc2cc(O)cc(O)c12` [KAEMPFEROL]: the affinity in assay [1] corresponds to a Ki of 29.5 µM. The molecule also showed an IC50 against Serine protease 1 of 106 µM.
`O=c1cc(-c2ccc(O)c(O)c2)oc2cc(O)cc(O)c12` [LUTEOLIN]: in assay [1], the affinity corresponds to a Ki of 9.84 µM. At Serine protease 1, this molecule had an IC50 of 35.3 µM.
`O=c1cc(-c2ccc(O)cc2)oc2cc(O)cc(O)c12` [APIGENIN] had a Ki in assay [1] of 39.5 µM. This molecule also registered an IC50 at Serine protease 1 of 142 µM.
In assay [1], `O=c1c(O)c(-c2cc(O)c(O)c(O)c2)oc2cc(O)cc(O)c12` [MYRICETIN] yielded a Ki of 2.84 µM. On Serine protease 1, this molecule had an IC50 of 10.2 µM.
Molecule `COc1cc([C@@H]2Oc3c(O)cc([C@H]4Oc5cc(O)cc(O)c5C(=O)[C@@H]4O)cc3[C@H]2CO)ccc1O` [SILICRISTIN] came in with a Ki in assay [1] of 40.3 µM. The midpoint of inhibition on Serine protease 1, the IC50, lay at 144 µM.
`O=c1c(O)c(-c2ccc(O)cc2O)oc2cc(O)cc(O)c12` [MORIN]: the Ki in assay [1] is 30.9 µM. This molecule also showed an IC50 on Serine protease 1 of 111 µM.
